Data as given in patent publication US20090298857A1, “Treatment of Neurodegenerative Diseases Through Inhibition of HSP90” (SLOAN-KETTERING INSTITUTE FOR CANCER RESEARCH, priority 2006, published 2009).

Test system: human TauP301L in JNPL3 mouse brain
Assay: One dose PU-DZ8 in JNPL3 mice, soluble (S1) and insoluble (P3) Tau
Format: in vivo
Settings: 75 mg/kg i.p.
Method: To investigate whether the human TauP301L present in the JNPL3 line of mice is a sensitive target for Hsp90 inhibition, animals were treated with the brain-barrier permeable Hsp90 inhibitor PU-DZ8. This agent is a higher-potency water soluble derivative of PU24FC1 (EC50JNPL3 brain Hsp90=70 nM). One dose of PU-DZ8 (75 mg/kg) was administered intraperitoneally (i.p.) to female mice of 2.5-4 months in age (n=32) and animals were sacrificed in the interval of 0 to 36 h. Both aggregate-free Tau (S1) and insoluble Tau (P3) fractions were prepared from the subcortical and cortical regions of these mice. Human Tau levels were assessed by immunobloting with a human specific anti-Tau antibody (HT-7). […] We next examined in a 4- to 6-month old mouse group (n=15) whether the stability of mTau as present in tau aggregates (P3 fraction) was additionally regulated by Hsp90.
For experiments designed to test the kinetics of mTau and p35 modulation by Hsp90 inhibitors, animals were administered intraperitoneally (i.p.) 75 mg/kg PU-DZ8 in PBS (6% DMSO). Mice were sacrificed by CO2 euthanasia at the indicated times following PU-DZ8 administration. Hemibrains were separated into cortico-limbic (cortex, amygdale and hippocampus) and subcortical (basal ganglia, diencephalon, brain stem and cerebellum) regions, quickly frozen on dry ice and stored at −80° C. and processed. In summary, each brain piece was weighed and homogenized in three volumes of Tris-buffered saline (TBS) containing protease and phosphatase inhibitors (25 mM Tris-HCl, pH 7.4, 150 mM NaCl, 1 mM EDTA, 1 mM EGTA, 5 mM sodium pyrophosphate, 30 mM p-glycerophosphate, 30 mM sodium fluoride. 1 mM phenylmethylsulfonyl fluoride (PMSF)). The homogenates were centrifuged at 27,000 g for 15 min at 4° C. Supernatants were collected as S1 fractions, and the pellets (P1) were re-homogenized in three volumes of salt/sucrose buffer (0.8 M NaCl, 10% sucrose, 10 mM Tris/HCl, pH 7.4, 1 mM EGTA, 1 mM PMSF) and centrifuged as above. The resulting pellets were discarded and the supernatants were incubated with sarkosyl (Sigma, St Louis, Mo., USA; 1% final concentration) for 1 h at 37° C. The sarkosyl mixtures were then centrifuged at 150,000 g for 30 min at 4° C. The supernatants (S2 fraction) were collected, and the pellets (P3) were resuspended in 50 μL 2% SDS in TBS and stored at −80° C. for western blotting. Proteins were analyzed by Western blot.

## CC(C)NCCCn1c(Cc2cc3c(cc2I)OCO3)nc2c(N)nc(F)nc21 [PU-DZ8]
  cdk5 expression: No significant changes
  expressions of Akt and Raf-1: not altered
4- to 6-month old mice
  insoluble and hyperphosphorylated Tau (P3 fraction): significant reduction
4 h (P=0.0031), maintained up to 36 h
  soluble precursor pool mTau (S1), subcortical brain regions: significant decrease
